“And” between values parts separate entries of the source, which are not always exact repeats. Identical values can stand only once. Like-named read-outs stand apart in the source and are kept apart here.
Key:
[1] = molecular target: human Na,K-ATPase α2β1FXYD1 (Homo sapiens, UniProt P50993); format: biochemical
[2] = system: human Na,K-ATPase α2β1FXYD1; format: biochemical
[3] = molecular target: human Na,K-ATPase α2β3FXYD1 (Homo sapiens (Human), UniProt P50993+P54709); assay: biochemical; format: biochemical
[4] = molecular target: Na,K-ATPase in bovine ciliary NPE cells (Bos taurus, UniProt Q08DA1); assay: biochemical
[5] = system: Na,K-ATPase in bovine ciliary NPE cells; assay: biochemical; conditions: 1 site model; read-out: Ki, nM ± SEM
[6] = molecular target: Na,K-ATPase in bovine ciliary NPE cells (Bos taurus, UniProt A2VDL6); assay: biochemical
[7] = system: 4AP-induced IOP in rabbits; format: in vivo, rabbit; conditions: one drop topically prior to 4AP
[8] = molecular target: human Na,K-ATPase α1β1FXYD1 (Homo sapiens (Human), UniProt P05023); format: biochemical
[9] = molecular target: human Na,K-ATPase α2β2FXYD1 (Homo sapiens (Human), UniProt P50993); format: biochemical
basal IOP in rabbits = assay: Basal IOP in rabbits, topical administration; format: in vivo, rabbit
tissues of the eye = assay: Histological examination of eye tissues after topical application for one week; format: in vivo, rabbit; conditions: one drop of 1 mM daily for one week
Procedure: In order to assess whether topical application of DcB damaged the tissues of the eye including cornea, iris, lens, cilary body, retina, choroid and sclera, a histological examination was conducted after topical application, using one drop of 1 mM DcB daily for one week in one eye of each animal, with the other eye treated topically with one drop of PBS and serving as the control. Animals were sacrificed, eyes were removed, fixed in 10% neutral buffered formalin, processed routinely for histological examination, trimmed at 4 μm, and stained with hematoxylin and eosin.

## CC1CN(C2CCC2)CCC(O[C@@H]2[C@H](C)O[C@@H](O[C@@H]3[C@H](C)O[C@@H](O[C@H]4CC[C@@]5(C)C(CCC6C5C[C@H](O)[C@]5(C)[C@@H](C7=CC(=O)OC7)CC[C@]65O)C4)C[C@@H]3O)C[C@@H]2O)O1 (some centres unmarked) [DcB]
[1]; read-out: Ki in nM ± SEM α2β1
  Ki: 8 ± 1.25 nM
[1]; read-out: Ki of α2β1FXYD1
  Ki: 8 ± 1.25 nM
[2]
  Selectivity Ki ratio α1β1/α2β1: 16.9
[3]
  Ki for α2β3 lower than for digoxin: about 10 fold
  Selectivity Ki ratio α1β1/α2β3: 33.6
  selectivity for α2β3 over α1β1 (Ki α1β1:α2β3 ratio): 33 fold
[3]; read-out: Ki in nM ± SEM α2β3
  Ki: ~4 nM and 4 nM
[4]
  Ki: 151 ± 7.6 nM
[5]
  Ki: 17.3 ± 2.5 nM
[6]
  Ki: 6.9 ± 2 nM
[6]; read-out: Ki α2, 2 sites model
  Ki: 6.9 nM
[7]
  concentration that prevents the 4AP-induced rise in IOP: 0.01 mM
[8]
  Ki for α1β1 lower than for digoxin: 2-3 fold
[8]; read-out: Ki in nM ± SEM α1β1
  Ki: 135 ± 11 nM
[8]; read-out: Ki of α1β1FXYD1
  Ki: 135 ± 11 nM
[9]
  Selectivity Ki ratio α1β1/α2β2: 22.2
[9]; read-out: Ki in nM ± SEM α2β2
  Ki: 6 ± 1 nM
Basal IOP in rabbits; 1 mM DcB, 0.005% Latanoprost
  time after which IOP returned to the control value: 12 h
Basal IOP in rabbits; 2 mM
  effect on basal IOP at higher concentration: reduces the IOP similarly to 1 mM DcB
Basal IOP in rabbits; after 3-8 hours
  steady-state IOP as % of the unchanged control values: 75-80%
Basal IOP in rabbits; after 3-8 hours, basal IOP 17-18 mmHg, 1 mM DcB, 0.005% Latanoprost
  steady-state IOP lower than basal IOP: 3.5±0.15 mmHg
Basal IOP in rabbits; one drop of 1 mM solution, other eye PBS
  effect on lowering basal IOP: notable effect
Basal IOP in rabbits; rabbit with a basal IOP of 17 mm Hg
  reduction of basal IOP: about 4 mm Hg
Basal IOP in rabbits; relative to Latanoprost
  more effective than Latanoprost in reducing basal IOP: about 25%
Basal IOP in rabbits; topical, test period of 4-5 hours
  reduction of basal IOP: 20-25%
Tissues of the eye
  histological differences between treated and untreated eyes: No significant histological differences were observed

Source: US10668094B2, “Selective inhibitors of Alpha2-containing isoforms of Na,K-ATPase and use thereof for reduction of intraocular pressure” (Yeda Research and Development Co. Ltd., priority 2015, dated 2020)
